# Reference: patent US11939361B2, “Compositions of peptide inhibitors of Interleukin-23 receptor” (Janssen Pharmaceutica NV, priority 2020, dated 2024)
# Where two headings read alike, the source gives them in different places.
# Test system: IL-23 and IL-1β-induced IL-17A secretion in whole blood
# Assay: Rat whole blood assay ex vivo after oral dosing, IL-17A ELISA
# Format: in vivo, Sprague-Dawley rats
# Settings: for inhibition of IL-23 and IL-1β-induced IL-17A secretion in whole blood: p.o., blood 2 h after dosing; for IC50: orally dosed rats, read-out: dilution-adjusted ex vivo IC50
# Excerpt: A rat whole blood assay was used to evaluate the systemic pharmacologic activity of the orally administered peptide of SEQ ID NO: 1. After oral dosing Sprague-Dawley rats with the peptide of SEQ ID NO: 1, blood was drawn from the rats and stimulated ex-vivo with rat IL-23 plus IL-1β. An ELISA assay was used to measure the presence of IL-17A. The production of IL-17A is expected to be suppressed if IL-23 is inhibited. This assay confirms that systemic exposure of orally dosed peptide of SEQ ID NO: 1 is associated with systemic activity, as measured by lower IL-17A production.
# Two or six hours after dosing, animals were euthanized and blood collected as described based on the following.
# For determination of peptide concentration, an aliquot of blood from peptide-treated rats was deposited into K2EDTA microtainer tubes and processed to plasma by centrifugation at 16,100×g for 5 minutes. Plasma was deposited into 5% volume of protease inhibitor (1 cocktail tablet dissolved in 2 mL PBS without Ca^++ and Mg^++) and stored at −80° C. for bioanalysis of test article by LCMS. The remainder of each blood sample was separately diluted in pre-warmed RPMI-1640 (with glutamine and HEPES) at a ratio of one part blood to four parts medium. The diluted blood was mixed by pipetting and kept at room temperature while working stocks of rat IL-23 and IL-1β were prepared in RPMI-1640. The blood was mixed again and 240 μL was pipetted per well into 96-well, round-bottom assay plates, followed by IL-23 and IL-1β stimulation as described below.
# A total of 10 μL of medium supplemented with IL-23 and IL-1β or IL-1β alone was added to each well of diluted blood such that the final concentration of IL-23 was 100, 20, or 4 ng/mL and the final concentration of IL-1β was 4 ng/mL. The assay plates were incubated at 37° C. in 5% CO2. After ˜24 hours, the assay plates were centrifuged at 1,300 rpm for 6 minutes at room temperature, and at least 100 μL of cell culture supernatant were collected into 96-well, V-bottom plates. The plates containing supernatants were sealed and placed on ice for immediate measurement of IL-17A or frozen at −80° C.
# To measure IL-17A in cell culture supernatants, the thawed supernatants were centrifuged at 1,300 rpm for 10 minutes at 4° C. A total of 20 μL of cell culture supernatant was mixed with 80 μL of NS buffer (provided with the rat IL-17A ELISA kit). The diluted samples as well as a freshly prepared serial titration of rat IL-17A (for standard curve) were combined with affinity tag labeled capture and reporter conjugated detector antibodies in 96-well plates (provided with the rat IL-17A ELISA kit). Following a 1-hour incubation at room temperature with shaking, each well was washed 3 times with 350 μL/well wash buffer. After the final wash, the plates were inverted and blotted to remove excess liquid. The plates were developed with TMB substrate for 10 minutes, protected from light, with shaking. After stopping the colorimetric reaction, the absorbance in individual wells was read at 450 nm using a SpectraMax 340PC plate reader.
# A standard curve was generated in duplicate for each ELISA plate. The standard curve data were analyzed with a four-parameter curve fit with 1/y^2 weighting using SoftMax Pro software. Supernatant IL-17A levels were interpolated or extrapolated from plate-specific standard curves using non-background subtracted optical density at 450 nm (OD450) values in SoftMax Pro and corrected for the dilution factor used in the ELISA assay in Microsoft Excel.
compound,measurement,setting,value
"CC(=O)NCCCC[C@@H]1NC(=O)[C@H](Cc2c[nH]c3c(C)cccc23)NC(=O)[C@H]([C@@H](C)O)NC(=O)[C@H](CC(N)=O)NC(=O)[C@@H](NC(C)=O)C(C)(C)SSC(C)(C)[C@@H](C(=O)N[C@@H](Cc2ccc(OCCN)cc2)C(=O)N[C@@H](Cc2ccc3ccccc3c2)C(=O)NC2(C(=O)N[C@@H](CCC(=O)O)C(=O)N[C@@H](CC(N)=O)C(=O)N[C@@H](Cc3cccnc3)C(=O)N(C)CC(N)=O)CCOCC2)NC1=O [SEQ ID NO: 1, Ac-[Pen]*—N-T-[W(7-Me)]-[Lys(Ac)]-[Pen]*-Phe[4-(2-aminoethoxy)]-[2-Nal]-[THP]-E-N-[3-Pal]-Sarc-NH2]",median IL-17A production relative to vehicle control,"10 mg/kg p.o., 2 hours post-dosing, 100, 20, or 4 ng/mL IL-23 and 4 ng/mL IL-1β",significantly reduced
same,median IL-17A levels,"10 mg/kg p.o., 6 hours post-dosing, 4 ng/mL IL-23",significant decrease
same,effect on ex vivo IL-17A response,"10 mg/kg p.o., 6 hours post-dosing, 100 and 20 ng/mL IL-23 and IL-1β",no significant effect
same,inhibition of IL-23 and IL-1β-induced IL-17A secretion in whole blood,0.03-100 mg/kg,dose-dependent inhibition
same,inhibition of IL-23 and IL-1β-induced IL-17A secretion in whole blood,doses of 1 mg/kg or lower,limited effect
same,inhibition of IL-23 and IL-1β-induced IL-17A secretion in whole blood,doses of 30 and 100 mg/kg,complete or nearly complete inhibition
same,IC50,blood challenged with 4 ng/mL IL-23 plus 4 ng/mL IL-1β,0.032 nM
same,IC50,blood challenged with 20 ng/mL IL-23 plus 4 ng/mL IL-1β,0.27 nM
